Experiments:
[1] = solubility in organic solvents at −10° C.; format: physicochemical; conditions: for soluble at (concentration) in tetralin / soluble at (concentration) in NMP / soluble at (concentration) in DMAc / soluble at (concentration) in dipropylene glycol dimethyl ether: −10° C.; for soluble at (concentration) in AROMATIC 200: AROMATIC 200, −10° C.
[2] = Solubility of Ex. 13 Product: 10% w/w solution in AROMATIC 200 stored in −11° C. freezer; format: physicochemical; conditions: 10% w/w in AROMATIC 200, −11° C. freezer, 2 weeks
Description: Solubility of Ex. 13 Product: A solution (10% w/w) in AROMATIC 200 was prepared at room temperature. The clear solution was placed in a −11° C. freezer for 2 weeks.

Row | soluble at (concentration) in tetralin [1] [%] | soluble at (concentration) in NMP [1] [%] | melting point [°C] | soluble at (concentration) in DMAc [1] [%] | soluble at (concentration) in dipropylene glycol dimethyl ether [1] [%] | soluble at (concentration) in AROMATIC 200 [1] [%] | Compound | crystallization from solution on cold storage [2]
1 | 7.5 | – | – | – | – | – | CCCCCCCCCCCCCCOc1ccccc1-c1ccccc1 [2-(tetradecyloxy)-1,1′-biphenyl] | –
2 | – | 10 | 140 to 142 | – | – | – | c1ccc(-c2ccccc2OCc2ccc(COc3ccccc3-c3ccccc3)cc2)cc1 [1,4-bis(([1,1′-biphenyl]-2-yloxy)-methyl)benzene] | –
3 | – | 10 | 62 to 67 | 10 | 10 | – | c1ccc(-c2ccccc2OCCCCOc2ccccc2-c2ccccc2)cc1 [1,4-bis([1,1′-biphenyl]-2-yloxy)butane] | –
4 | < 5 | – | 42 to 45 | – | – | – | CCCCCCCCCCCCCCCCCCOc1ccccc1-c1ccccc1 [2-(octadecyloxy)-1,1′-biphenyl] | –
5 | – | 10 | 149 to 151 | – | – | – | c1ccc(-c2ccccc2OCc2ccc(-c3ccc(COc4ccccc4-c4ccccc4)cc3)cc2)cc1 [4,4′-bis(([1,1′-biphenyl]-2-yloxy)methyl)-1,1′-biphenyl] | –
6 | – | – | – | – | – | – | O=C(Oc1ccccc1-c1ccccc1)c1ccccc1 [Ex. 13 Product, [1,1′-biphenyl]-2-yl benzoate] | No visibly detectable crystallization occurred
7 | 10 | – | 27 to 29 | – | 10 | 10 | CCCCCCCCCCCCOc1ccccc1-c1ccccc1 [2-(dodecyloxy)-1,1′-biphenyl] | –
8 | 10 | 10 | – | 10 | 10 | 10 | c1ccc(-c2ccccc2OCc2ccccc2COc2ccccc2-c2ccccc2)cc1 [1,2-bis(([1,1′-biphenyl]-2-yloxy)-methyl)benzene] | –

Reference: patent publication US9079838B2, “Ortho-phenylphenol compounds” (Dow Global Technologies LLC, priority 2011, dated 2015)
